Series [1] has as its system DNA labelled with tritium. Description: DNA-strand cleaving activity in cell-free system. It counts as biochemical. The settings on record: copper-free compound with divalent iron, oxygen, 37° C., 5 minutes. On the procedure:
2. DNA-strand cleaving activity in cell-free system.
The mechanism of carcinostatic action of bleomycins has been believed to involve the cleavage of DNA chain caused by the joint action of copper-free bleomycins, divalent iron and molecular oxygen. Similar activity of N-methylbleomycins were also confirmed.
A mixture of divalent iron and a copper-free N-methylbleomycin was dissolved together with DNA labelled with tritium in a M/10 phosphate buffer of pH 7.4 The resulting solution was allowed to react in the presence of oxygen at 37° C. for 5 minutes. To the reaction mixture, was added 25% trichloroacetic acid. The precipitate was removed by centrifugation and the supernatant (acid-soluble fraction) was assayed for radioactivity to obtain the percentage of acid-soluble DNA in acid. This percentage was utilized as an index of the degree of DNA-strand cleavage. Similar test was repeated on bleomycins A2 and B2 used as reference.

The next series has as its system HeLa S3 cells. Description: Growth inhibitory effect on cultured HeLa cells. It counts as cell-based. The settings on record: Cu-free; three days cultivation with sample. On the procedure: 3. Growth inhibitory effect on cultured HeLa cells.
HeLa S3 cells were inoculated into a medium (MEM with the addition of 10% calf serum) in a plastic Petri dish. After two days from the inoculation, N-methylbleomycinic acid or a N-methylbleomycin was added to the dish and after cultivation for further three days, the number of cells was counted. The growth inhibition (%) was calculated by the following equation: [formula] where A is the final number of cells on the third day from the addition of the test sample, B the final number of cells in a control culture without the addition of the test sample, and C the number of cells at the time of addition of the test sample. The value of ID50 (concentration for 50% inhibition) was calculated from the graph obtained by plotting the concentration of sample against the growth inhibition. A similar test was performed on bleomycinic acid and bleomycins used as control.

Series [2] concerns Mycobacterium smegmatis ATCC 607. Description: Antimicrobial activity against Mycobacterium smegmatis ATCC 607 (cylinder agar plate method). It counts as cell-based. On the procedure:
4. Antimicrobial activity against Mycobacterium smegmatis ATCC 607.
The antibacterial activity was assayed by the cylinder agar plate method against the above bacterium by assuming the activity of standard copper-free bleomycin A2 to be 1,000 mcg units/mg.
Note: Antimicrobial activity was assayed against Mycobacterium smegmatis ATCC 607 by assuming the activity of bleomycin A2 (copper-free form) to be 1,000 mcg units/mg. The same shall apply hereinafter.

Another series has as its target inactivating enzyme (Rattus norvegicus, UniProt P70645). As to conditions: rat liver extract, 37° C., 15, 30, 60 and 120 minutes; residual activity against Mycobacterium smegmatis ATCC 607.
[3] abbreviates: sample concentration 6.25 mcg/ml.
Where [4] appears, read: sample concentration 12.5 mcg/ml.
[5] abbreviates: Examples, step A product: copper complex hydrochloride, bleomycin A2 (copper-free form) assumed 1,000 mcg units/mg.
Where [6] appears, read: Examples, step B product: copper-free hydrochloride, bleomycin A2 (copper-free form) assumed 1,000 mcg units/mg.
Setting [7] is: Table 6, Cu-complex, standard copper-free bleomycin A2 assumed 1,000 mcg units/mg.
Where [8] appears, read: Table 6, Cu-free, standard copper-free bleomycin A2 assumed 1,000 mcg units/mg.

The source of these data is patent publication US4267102A, “Bleomycin group antibiotics” (Nippon Kayaku Kabushiki Kaisha, priority 1979, dated 1981).

Several values for one entry are separate records, joined by “and”; a condition that tells them apart may be missing. Equal entries are not always repeated.

inactivating enzyme, sequence (P70645 whole entry): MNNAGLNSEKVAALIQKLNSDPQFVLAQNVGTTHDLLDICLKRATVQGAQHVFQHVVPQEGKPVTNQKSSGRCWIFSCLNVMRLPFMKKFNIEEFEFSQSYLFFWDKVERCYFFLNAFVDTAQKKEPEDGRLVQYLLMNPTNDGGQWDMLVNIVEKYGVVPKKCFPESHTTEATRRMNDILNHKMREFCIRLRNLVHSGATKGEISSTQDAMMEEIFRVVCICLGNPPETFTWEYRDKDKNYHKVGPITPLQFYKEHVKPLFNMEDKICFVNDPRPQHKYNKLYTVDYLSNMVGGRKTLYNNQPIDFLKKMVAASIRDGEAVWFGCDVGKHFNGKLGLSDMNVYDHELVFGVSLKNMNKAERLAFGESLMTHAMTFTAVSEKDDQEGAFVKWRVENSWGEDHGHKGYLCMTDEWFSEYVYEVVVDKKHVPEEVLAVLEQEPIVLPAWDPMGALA
Experimental for inactivating enzyme: Test for resistance to inactivating enzyme.
(1) Extraction of inactivating enzyme.
The liver of female Donryu strain rat was ground in twice by weight of M/15 phosphate buffer of pH 7.2 to prepare a tissue emulsion. The emulsion was centrifuged at 105,000×G for 60 minutes and the supernatant was dialyzed with the above buffer. A high molecular fraction thus obtained was used as the extract solution of an inactivating enzyme.
(2) Examination of inactivating reaction.

With “3-[(S)-1'-phenylethylamino]propylamino-N-methylbleomycin [Compound (5)]”, the “Acid-soluble DNA (%)” value is given as 70.1% in series [1] (setting [3]), 92.6% in series [1] (setting [4]) and 100.5% in series [1] (sample concentration 25 mcg/ml). Besides, the “50% growth inhibitory concentration (ID50) against cultured HeLa S3 cells” value (from here on “50% growth inhibitory concentration”) in the series on HeLa S3 cells is 0.30 µg/mL. Besides, the Antimicrobial activity is given as 4,320 mcg units/mg in series [2] (setting [5]), 4,280 mcg units/mg in series [2] (setting [6]), 4,266 mcg units/mg in series [2] (setting [7]) and 4,333 mcg units/mg in series [2] (setting [8]).
For the molecule “3-(3-n-butylaminopropylamino)propylaminobleomycin [reference compound]”, the “50% growth inhibitory concentration” value in the series with HeLa S3 cells amounted to 0.43 µg/mL.
On to N-methylbleomycin A2 [Compound (2)], for which the “Acid-soluble DNA (%)” value in series [1] (setting [3]) stood at 64.6%; in series [1] (setting [4]) it was 90.7%; in series [1] (sample concentration 25 mcg/ml), 99.9%. Moreover, the “50% growth inhibitory concentration” value in the series on HeLa S3 cells came to 0.81 µg/mL. The Antimicrobial activity in series [2] (setting [5]) was 520 mcg units/mg and 516 mcg units/mg and 507 mcg units/mg; in series [2] (setting [6]), 418 mcg units/mg and 427 mcg units/mg and 420 mcg units/mg; in series [2] (setting [7]) it was 423 mcg units/mg; in series [2] (setting [8]), 513 mcg units/mg.
As to `Cc1c(N)nc(C(CC(N)=O)NCC(N)C(N)=O)nc1C(=O)NC(C(=O)NC(C)C(O)C(C)C(=O)NC(C(=O)NCCc1nc(-c2nc(C(=O)O)cs2)cs1)C(C)O)C(OC1OC(CO)C(O)C(O)C1OC1OC(CO)C(O)C(OC(N)=O)C1O)c1cnc[nH]1` (centres unmarked) [Bleomycinic acid, reference compound], the “50% growth inhibitory concentration” value in the series with HeLa S3 cells was found to be 18 µg/mL. Further, the “Resistance to inactivating enzyme (residual activity with reaction time, FIGS. 1 to 6)” value at inactivating enzyme is “markedly susceptible”.
Consider N-methylbleomycin B2 [Compound (3)], for which the “Acid-soluble DNA (%)” value in series [1] (setting [3]) is listed as 87.6%; in series [1] (setting [4]) it was 95.5%; in series [1] (sample concentration 25 mcg/ml) it was 102.1%. Besides, the “50% growth inhibitory concentration” value in the series on HeLa S3 cells stood at 0.35 µg/mL. In addition, the Antimicrobial activity in series [2] (setting [5]) is 1,758 mcg units/mg and 1,770 mcg units/mg; in series [2] (setting [6]) it was 1,752 mcg units/mg and 1,756 mcg units/mg; in series [2] (setting [7]), 1,755 mcg units/mg; in series [2] (setting [8]) it was 1,766 mcg units/mg.
As for `Cc1c(N)nc([C@H](CC(N)=O)NC[C@H](N)C(N)=O)nc1C(=O)N[C@H](C(=O)N[C@H](C)[C@@H](O)[C@H](C)C(=O)N[C@H](C(=O)NCCc1nc(-c2nc(C(=O)NCCC[S+](C)C)cs2)cs1)[C@@H](C)O)[C@@H](O[C@@H]1O[C@@H](CO)[C@@H](O)[C@H](O)[C@@H]1O[C@H]1O[C@H](CO)[C@@H](O)[C@H](OC(N)=O)[C@@H]1O)c1c[nH]cn1.[Br-]` [Bleomycin A2, reference compound], the results for the “Acid-soluble DNA (%)” value in series [1] (setting [3]), in series [1] (setting [4]) and in series [1] (sample concentration 25 mcg/ml) were 78.6%, 90.8% and 100.9%, respectively. Moreover, the “50% growth inhibitory concentration” value with HeLa S3 cells is 0.73 µg/mL.
Take “3-(3-n-butylaminopropylamino)propylamino-N-methylbleomycin [Compound (6)]”: the “Acid-soluble DNA (%)” value in series [1] (setting [3]) is on record as 59.5%; in series [1] (setting [4]), 94.0%; in series [1] (sample concentration 25 mcg/ml), 100.4%. The “50% growth inhibitory concentration” value in the series on HeLa S3 cells worked out at 0.37 µg/mL. For the same molecule, the Antimicrobial activity in series [2] (setting [7]) is 3,695 mcg units/mg; in series [2] (setting [8]) it was 3,438 mcg units/mg.
Take N-methylbleomycin A2 '-b [Compound (4)]: the “Acid-soluble DNA (%)” value is listed as 61.7% in series [1] (setting [3]), 94.1% in series [1] (setting [4]) and 99.4% in series [1] (sample concentration 25 mcg/ml). Moreover, the “50% growth inhibitory concentration” value in the series with HeLa S3 cells came to 0.58 µg/mL. Besides, the Antimicrobial activity in series [2] (setting [6]) was 618 mcg units/mg; in series [2] (setting [7]), 625 mcg units/mg; in series [2] (setting [8]), 595 mcg units/mg.
As to Bleomycin B2 [reference compound], the “Acid-soluble DNA (%)” value in series [1] (setting [3]) is 85.6%; in series [1] (setting [4]), 95.8%; in series [1] (sample concentration 25 mcg/ml), 98.2%. The “50% growth inhibitory concentration” value with HeLa S3 cells is 0.80 µg/mL.
On to `Cc1c(N)nc([C@H](CC(N)=O)NC[C@H](N)C(N)=O)nc1C(=O)N[C@H](C(=O)N[C@H](C)[C@@H](O)[C@H](C)C(=O)N[C@H](C(=O)NCCc1nc(-c2nc(C(=O)NCCCN)cs2)cs1)[C@@H](C)O)[C@@H](O[C@@H]1O[C@@H](CO)[C@@H](O)[C@H](O)[C@@H]1O[C@H]1O[C@H](CO)[C@@H](O)[C@H](OC(N)=O)[C@@H]1O)c1cnc[nH]1` [Bleomycin A2 -b, bleomycin A2 '-b, reference compound], for which the “50% growth inhibitory concentration” value in the series on HeLa S3 cells came out at 1.5 µg/mL.
Regarding `Cc1c(N)nc(C(CC(N)=O)NCC(N)C(N)=O)nc1C(=O)NC(C(=O)NC(C)C(O)C(C)C(=O)NC(C(=O)NCCc1nc(-c2nc(C(=O)NCCCNC(C)c3ccccc3)cs2)cs1)C(C)O)C(OC1OC(CO)C(O)C(O)C1OC1OC(CO)C(O)C(OC(N)=O)C1O)c1c[nH]cn1` [3-[(S)-1'-phenylethylamino]propylaminobleomycin, reference compound], the “50% growth inhibitory concentration” value with HeLa S3 cells stood at 0.52 µg/mL.
Take N-methylbleomycinic acid [Compound (1)]: in the series on HeLa S3 cells, the “50% growth inhibitory concentration” value is 4.8 µg/mL. Moreover, the Antimicrobial activity worked out at 64 mcg units/mg in series [2] (setting [7]) and 59 mcg units/mg in series [2] (setting [8]).
